# Reference: publication PMC7284870, “Antimicrobial Peptides from Rat-Tailed Maggots of the Drone Fly Eristalis tenax Show Potent Activity against Multidrug-Resistant Gram-Negative Bacteria” (Microorganisms, 2020)
# Like-named read-outs stand apart in the source and are kept apart here. Residues, ends and D or L forms follow the SMILES beside them. No end group written: not given here.
# Legend:
# [1] = tested on: Pseudomonas aeruginosa ATCC 27853; format: cell-based
# Method: (§1) The strains that were used in this study (Table 2 and Table S1) were cultivated at 37 °C in cation-adjusted Mueller–Hinton broth (CAMB) in Erlenmeyer flasks, or on the same medium with agar in Petri dishes. Exceptionally, Mycobacterium smegmatis was cultivated at 37 °C in brain heart infusion (BHI) medium that was supplemented with 1% Tween-80 in Erlenmeyer flasks, or on the same medium lacking detergent but with agar in Petri dishes. Strains listed with Robert Koch Institute (RKI) strain numbers are clinical isolates from the RKI strain collection originating from hospitalized patients in Germany. The remaining strains originated from the Sanofi strain collection and they were originally purchased from the American Type Culture Collection or the German Collection of Microorganisms and Cell Cultures. Meropenem/colistin-resistant strains were maintained, as described above, with the appropriate antibiotic added at levels below the minimal inhibitory concentration (MIC).
# (§2) The MIC values were determined in 384-well microtiter plates with an assay volume of 20 µL. Immediately before each assay, the cultures of test organisms (bacteria grown for 18 h, Candida albicans and M. smegmatis grown for 48 h) were diluted with the appropriate medium to a density of 1 × 10^6 cells/mL (C. albicans), 1 × 10^5 cells/mL (M. smegmatis) or 5 × 10^5 cells per mL (other species). […] We transferred 2-µL aliquots from this dilution series to new 384-well microtiter plates while using a CyBio-Well 384-channel automated pipettor (Analytic Jena, Jena, Germany) and added 18 µL of the diluted suspension of each test species using a Viafill reagent dispenser (Integra), thus reducing the final peptide concentration 10-fold to the range 1024–0.03125 µg/mL. […] The growth of M. smegmatis was measured using the BacTiter-Glo luminescence test system (Promega, Madison, WI, USA). The growth of the other species was determined by visual inspection of the microtiter plate and turbidimetry based on the optical density at 600 nm (OD600). The MIC was defined as the peptide concentration at which no bacterial growth was observed. We supplemented the test medium with either 150 mM NaCl or 1.25 mM CaCl2 to represent monovalent and divalent cations to simulate physiological conditions.
# [2] = tested on: Klebsiella pneumoniae DSM 30104; format: cell-based
# Method: as §1, §2
# Escherichia coli D31 = format: cell-based; settings: D31, 18 h
# Method: as §1, §2
# [3] = tested on: Staphylococcus aureus ATCC 25923; format: cell-based
# Method: as §1, §2
# [4] = tested on: Acinetobacter baumannii ATCC 19606; format: cell-based
# Method: as §1, §2
# E. coli RKI 131/08 = assay: microbe, parasite or virus in culture; format: cell-based, Escherichia coli; settings: RKI 131/08, 18 h
# Method: as §1, §2
# K. pneumoniae RKI 93/10 = assay: microbe, parasite or virus in culture; format: cell-based, Klebsiella pneumoniae; settings: RKI 93/10, 18 h
# Method: as §1, §2
# S. aureus ATCC 33592 = format: cell-based, Staphylococcus aureus
# Method: as §1, §2
# [5] = molecular target: human ERG (hERG) potassium channel (Homo sapiens, UniProt Q12809); assay: cell-based
# Chain of human ERG (hERG) potassium channel (Q12809 whole entry): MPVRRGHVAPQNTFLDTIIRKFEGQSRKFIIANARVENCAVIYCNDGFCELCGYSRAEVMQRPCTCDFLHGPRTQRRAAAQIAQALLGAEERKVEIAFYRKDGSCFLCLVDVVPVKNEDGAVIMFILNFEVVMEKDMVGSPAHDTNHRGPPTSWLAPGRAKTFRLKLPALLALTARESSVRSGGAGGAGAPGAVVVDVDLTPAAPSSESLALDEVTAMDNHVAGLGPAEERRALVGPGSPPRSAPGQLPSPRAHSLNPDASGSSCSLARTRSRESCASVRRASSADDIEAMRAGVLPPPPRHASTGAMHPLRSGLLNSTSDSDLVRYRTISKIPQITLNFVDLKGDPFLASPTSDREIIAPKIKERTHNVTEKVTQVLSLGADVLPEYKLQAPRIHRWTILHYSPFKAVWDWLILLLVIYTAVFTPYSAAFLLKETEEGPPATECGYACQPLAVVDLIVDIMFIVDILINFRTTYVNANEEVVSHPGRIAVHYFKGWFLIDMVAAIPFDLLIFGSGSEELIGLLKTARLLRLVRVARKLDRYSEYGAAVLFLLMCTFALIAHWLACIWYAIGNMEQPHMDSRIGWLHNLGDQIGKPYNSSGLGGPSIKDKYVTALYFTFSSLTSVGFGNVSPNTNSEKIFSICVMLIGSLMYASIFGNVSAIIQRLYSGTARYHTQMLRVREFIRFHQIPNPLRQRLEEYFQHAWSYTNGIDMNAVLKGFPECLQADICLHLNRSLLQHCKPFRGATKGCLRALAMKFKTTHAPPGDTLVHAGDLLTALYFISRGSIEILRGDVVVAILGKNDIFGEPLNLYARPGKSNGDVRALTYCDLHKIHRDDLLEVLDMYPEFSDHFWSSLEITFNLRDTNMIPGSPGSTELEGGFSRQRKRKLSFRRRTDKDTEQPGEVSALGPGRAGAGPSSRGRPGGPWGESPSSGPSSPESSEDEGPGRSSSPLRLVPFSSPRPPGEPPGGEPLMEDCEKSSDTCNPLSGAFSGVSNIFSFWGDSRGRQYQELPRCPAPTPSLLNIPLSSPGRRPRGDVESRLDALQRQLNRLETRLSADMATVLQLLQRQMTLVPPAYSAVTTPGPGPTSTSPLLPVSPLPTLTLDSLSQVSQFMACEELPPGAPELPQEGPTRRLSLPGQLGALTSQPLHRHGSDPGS
# Method: The interaction of the peptides with the human ERG (hERG) potassium channel was analyzed using the automated patch-clamp method. Chinese hamster ovary (CHO) hERG Duo cells constitutively expressing hERG (B’SYS) were diluted to 8 × 10^6 cells/mL in Ex-Cell CHO medium (Sigma–Aldrich) containing 25 mM HEPES, 100 U/mL penicillin-streptomycin, and 0.004% soybean trypsin inhibitor. The peptides were diluted from a stock concentration of 10 mM in DMSO to final concentrations of 0.12, 0.37, 1.1, 3.3, 10, and 30 μM (0.5–124 µg/mL for […], 0.51–128 µg/mL for EtCec2-a, 0.49–122 µg/mL for EtCec3-a, 0.8–200 µg/mL for EtDip) in extracellular medium (150 mM NaCl, 4 mM KCl, 2 mM CaCl2, 1 mM MgCl2, 10 mM HEPES, 10 mM glucose) containing 0.06% Pluronic F-68 and 0.3% residual DMSO. The response of hERG to each peptide was assessed while using a QPatch HTX station and QPlates (Sophion/Biolin Scientific, Ballerup, Denmark) by recording the tail current following channel repolarization. Half-maximal inhibitory concentrations (IC50) were determined from a series of six concentrations applied to the cells in ascending order. Terfenadine citrate was used as a positive control and extracellular medium as a negative control.
# A. baumannii RKI 19/09 = assay: microbe, parasite or virus in culture; format: cell-based, Acinetobacter baumannii; settings: RKI 19/09, 18 h
# Method: as §1, §2
# HepG2 cells = assay: Cytotoxicity (ATP quantification and neutral red uptake)
# Method: The cytotoxicity of the AMPs was determined in 96-well microtiter plates with an assay volume of 200 µL. The peptides were dissolved in PBS and a 1:2 dilution series in DMEM-F12 medium (supplemented with 1% nonessential amino acids, 1% sodium pyruvate, and 5% heat-inactivated fetal calf serum) was prepared in nine steps to produce test concentrations of 400, 200, 100, […], 12.5, 6.25, 3.13, and 1.56 μM (1655–6.46 µg/mL for EtCec1-a, 1713–6.68 µg/mL for EtCec2-a, 1622–6.33 µg/mL for EtCec3-a, 2661–10.38 µg/mL for EtDip). Stocks of the mycoplasma-free HepG2 cell line HB-8065 (ATCC) stored in liquid nitrogen were seeded at a density of 20,000 cells/well into 96-well microplates in 100 μL DMEM-F12 supplemented as above. After incubation overnight at 37 ± 1 °C in a 5% CO2 atmosphere, 100 μL of the test solution was added per well in six replicates. Ketoconazole was used as a positive control and PBS as a negative control. The plates were incubated for 24 h, as above, and the cell viability was assessed using the luminescent CellTiter-Glo ATP monitoring kit (Promega) to determine the quantity of ATP.
# HepG2 cells and peptides were prepared as described above, and cell viability was assessed based on the ability of lysosomes to store the dye neutral red (Sigma–Aldrich, ST. Louis, MO, USA). The cells were incubated for 3 h with a neutral red solution, washed twice, and lysed. After complete lysis, the quantity of neutral red was determined by measuring the absorption at 540 nm while using a Tecan Genios Pro plate reader.
# [6] = tested on: Listeria monocytogenes DSM 20600; format: cell-based; settings: CAMB, 18 h, 37 °C, n = 4
# Method: as §1, §2
# [7] = tested on: Staphylococcus epidermidis ATCC 35984; format: cell-based; settings: CAMB, 18 h, 37 °C, n = 4
# Method: as §1, §2
# [8] = tested on: Proteus mirabilis DSM 4479; format: cell-based; settings: CAMB, 18 h, 37 °C, n = 4
# Method: as §1, §2
# [9] = tested on: Enterococcus faecium DSM 17050; format: cell-based; settings: CAMB, 18 h, 37 °C, n = 4
# Method: as §1, §2
# [10] = tested on: Mycobacterium smegmatis ATCC 607; format: cell-based; settings: BHI, 48 h, 37 °C, BacTiter-Glo, n = 4
# Method: as §1, §2
# [11] = tested on: Micrococus luteus DSM 20030; format: cell-based, Micrococcus luteus; settings: CAMB, 18 h, 37 °C, n = 4
# Method: as §1
# The MIC values were determined in 384-well microtiter plates with an assay volume of 20 µL. […] The growth of M. smegmatis was measured using the BacTiter-Glo luminescence test system (Promega, Madison, WI, USA). The growth of the other species was determined by visual inspection of the microtiter plate and turbidimetry based on the optical density at 600 nm (OD600). […]
# E. coli ATCC 25922 = tested on: E. coli ATCC 25922
# Method: as §1
# The MIC values were determined in 384-well microtiter plates with an assay volume of 20 µL. Immediately before each assay, the cultures of test organisms (bacteria grown for 18 h, Candida albicans and M. smegmatis grown for 48 h) were diluted with the appropriate medium to a density of 1 × 10^6 cells/mL (C. albicans), 1 × 10^5 cells/mL (M. smegmatis) or 5 × 10^5 cells per mL (other species). The peptides were dissolved in sterile water at a concentration of 10.24 mg/mL and a 1:2 dilution series was prepared in a 384-well microtiter plate to achieve the concentration range 10,240–0.3125 µg/mL in a volume of 50 µL. We transferred 2-µL aliquots from this dilution series to new 384-well microtiter plates while using a CyBio-Well 384-channel automated pipettor (Analytic Jena, Jena, Germany) and added 18 µL of the diluted suspension of each test species using a Viafill reagent dispenser (Integra), thus reducing the final peptide concentration 10-fold to the range 1024–0.03125 µg/mL. The cells were incubated at 37 °C and 85% relative humidity, shaking at 180 rpm for 48 h (M. smegmatis), 24 h (C. albicans) or 18 h (other species). The growth of M. smegmatis was measured using the BacTiter-Glo luminescence test system (Promega, Madison, WI, USA). The growth of the other species was determined by visual inspection of the microtiter plate and turbidimetry based on the optical density at 600 nm (OD600). […] We supplemented the test medium with either 150 mM NaCl or 1.25 mM CaCl2 to represent monovalent and divalent cations to simulate physiological conditions.
# Canida albicans FH2173 = format: cell-based, Candida albicans; settings: CAMB, 24 h, 37 °C, n = 4
# Method: as §1, §2
compound,measurement,setting,value
GFLKKVGKKLEGASDLTRDATIQTIAVAQAAANVAATAKQ-NH2 [EtCec3-NH2],MIC,"[1]; ATCC 27853, 18 h",>1024 µg/mL
same,MIC,"[2]; DSM 30104, 18 h",>1024 µg/mL
same,MIC,Escherichia coli D31,128 µg/mL
same,MIC,"[3]; ATCC 25923, 18 h",>1024 µg/mL
same,MIC,"[4]; ATCC 19606, 18 h",>1024 µg/mL
same,MIC,E. coli RKI 131/08,>1024 µg/mL
same,MIC,K. pneumoniae RKI 93/10,>1024 µg/mL
same,MIC,"S. aureus ATCC 33592; ATCC 33592, 18 h",>1024 µg/mL
same,IC50,[5],> 30 µM
same,MIC,A. baumannii RKI 19/09,>1024 µg/mL
same,NOEC,HepG2 cells,> 1622 µg/mL
"CC(C)C[C@@H]1NC(=O)[C@@H]2CSSC[C@@H](C(=O)N[C@@H](CCCNC(=N)N)C(=O)N[C@@H](CCCCN)C(=O)O)NC(=O)[C@H](CC(N)=O)NC(=O)[C@@H]3CSSC[C@H](NC(=O)[C@H](C)NC(=O)[C@H](C)NC(=O)[C@H](CC(=O)O)NC(=O)[C@H](CCCCN)NC(=O)[C@H](C(C)C)NC(=O)[C@H](CC(N)=O)NC(=O)[C@H](CC(C)C)NC(=O)[C@H](Cc4ccccc4)NC(=O)[C@H](CO)NC(=O)[C@H](CC(C)C)NC(=O)[C@H](CC(C)C)NC(=O)[C@H](CC(=O)O)NC(=O)[C@@H](NC(=O)[C@@H](NC(=O)[C@H](C)N)[C@@H](C)O)CSSC[C@H](NC(=O)[C@H](Cc4ccc(O)cc4)NC(=O)CNC(=O)CNC(=O)[C@H](CCCNC(=N)N)NC(=O)[C@H](Cc4ccc(O)cc4)NC(=O)CNC(=O)[C@H](CCCCN)NC(=O)[C@H](C)NC1=O)C(=O)N[C@@H](CC(=O)O)C(=O)NCC(=O)N[C@@H](CCCNC(=N)N)C(=O)N[C@@H](CCCCN)C(=O)N[C@@H](C(C)C)C(=O)N3)C(=O)N[C@@H](C)C(=O)N[C@@H](C)C(=O)N[C@@H](Cc1c[nH]cn1)C(=O)N2 [EtDef4] (HELM PEPTIDE1{A.T.C.D.L.L.S.F.L.N.V.K.D.A.A.C.A.A.H.C.L.A.K.G.Y.R.G.G.Y.C.D.G.R.K.V.C.N.C.R.K}$PEPTIDE1,PEPTIDE1,3:R3-30:R3|PEPTIDE1,PEPTIDE1,16:R3-36:R3|PEPTIDE1,PEPTIDE1,20:R3-38:R3$$$V2.0)",MIC,"[1]; CAMB, 18 h, 37 °C, n = 4",>128 µg/mL
same,MIC,"[2]; CAMB, 18 h, 37 °C, n = 4",>128 µg/mL
same,MIC,[6],16 µg/mL
same,MIC,[7],>128 µg/mL
same,MIC,[8],>128 µg/mL
same,MIC,[9],>128 µg/mL
same,MIC,[10],32 µg/mL
same,MIC,"[3]; CAMB, 18 h, 37 °C, n = 4",16 µg/mL
same,MIC,"[4]; CAMB, 18 h, 37 °C, n = 4",>128 µg/mL
same,MIC,[11],16 µg/mL
same,MIC,"S. aureus ATCC 33592; CAMB, 18 h, 37 °C, n = 4",16 µg/mL
same,MIC,E. coli ATCC 25922; CAMB + A000160918 [4 µg/mL],32 µg/mL
same,MIC,E. coli ATCC 25922; CAMB + A000161246 [4 µg/mL],128 µg/mL
same,MIC,E. coli ATCC 25922; CAMB + A000173031A [4 µg/mL],16 µg/mL
same,MIC,E. coli ATCC 25922; CAMB + A000173033A [4 µg/mL],256 µg/mL
same,MIC,E. coli ATCC 25922; CAMB + A000173039A [0.25 µg/mL],64 µg/mL
same,MIC,E. coli ATCC 25922; CAMB + A000173380A [4 µg/mL],256 µg/mL
same,MIC,E. coli ATCC 25922; CAMB + A000498432A [4 µg/mL],>256 µg/mL
same,MIC,E. coli ATCC 25922; CAMB + A000499933A [0.0625 µg/mL],>256 µg/mL
same,MIC,E. coli ATCC 25922; CAMB + A000500059A [0.0625 µg/mL],>256 µg/mL
same,MIC,E. coli ATCC 25922; CAMB + A000500146A [0.0625 µg/mL],4 µg/mL
same,MIC,E. coli ATCC 25922; CAMB + A000501181A [4 µg/mL],>256 µg/mL
same,MIC,E. coli ATCC 25922; CAMB + Colistin E1 [0.016 µg/mL],8 µg/mL
same,MIC,E. coli ATCC 25922; CAMB + Colistin E2 [0.016 µg/mL],2 µg/mL
same,MIC,E. coli ATCC 25922; CAMB + PMB [0.016 µg/mL],2 µg/mL
same,MIC,E. coli ATCC 25922; CAMB + PMBN [4 µg/mL],>256 µg/mL
same,MIC,"E. coli ATCC 25922; CAMB, 18 h, 37 °C, n = 4",>128 µg/mL
same,MIC,"E. coli ATCC 25922; Table 6, CAMB",>256 µg/mL
same,MIC,Canida albicans FH2173,>128 µg/mL
